BindingDB's records for doi:10.1021/acs.jmedchem.9b01283 (Pharmaxis, 2019)

Target: Diamine oxidase AOC1 (Homo sapiens)
Assay: Inhibition of recombinant human DAO using putrescine as substrate preincubated with enzyme for 30 mins followed by substrate addition and measured every 2.5 mins for 30 mins by Amplex-Red oxidation assay

In the case of `Cc1c(-c2cccc(S(=O)(=O)N(C)C)c2)c2cc(C(=O)O)ccc2n1CC(F)=CCN`, the IC50 is reported as greater than 10 µM.

`Cc1c(-c2cccc(S(=O)(=O)N(C)C)c2)c2ccccc2n1CC(F)=CCN` was tested, and the IC50 was 3.98 µM.
